Results published in patent US20250163057A1, “DCN-1 MODULATING COMPOUNDS AND METHODS OF USE THEREOF” (Cellarity, Inc., priority 2023, published 2025).
Read-outs that look alike come from different tables or passages of the source.

Assays:
[1] = tested on: Cullin-3 (CUL3) neddylation; test: AlphaLISA assay for Cullin-3 (CUL3) neddylation in TF 1 cells; format: cell-based; settings: Homo sapiens, TF-1, 3 h, 3 hours treatment
Outline: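 Neddylated CUL3 was quantified by AlphaLISA in lysates of TF 1 cells exposed for 3 h to test compound in IMDM without supplements. Percent inhibition set between vehicle and 1 μM DI-1548 positive control; IC50 derived by Hill-equation fitting of dose-response curves.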

[2] = target: DCN1 (DCUND1) protein PONY domain (Homo sapiens (Human), UniProt Q96GG9); test: TR-FRET assay, DCN1 binding with FAM-labeled probe
Outline: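 First, the E. coli-derived PONY domain was biotinylated and paired with streptavidin Tb cryptate. Compounds in 0.1% DMSO were then added to DCN1 and FAM-probe (5 nM/20 nM, or 0.31 nM/900 nM total with 800 nM unlabelled) in TritonX, 200 mM NaCl buffer. Finally, TR-FRET ratios were recorded at 1, 5 and 24 hrs.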

[3] = 24 hr after treatment with compound, read-out: TR FRET IC50 24 hr
[4] = TR FRET IC50 1 hr (nM), 1 hr after treatment with compound
[5] = read-out: TR FRET IC50 1 hr, 1 hr after treatment with compound

Sequence of DCN1 (DCUND1) protein PONY domain (Q96GG9 60-248): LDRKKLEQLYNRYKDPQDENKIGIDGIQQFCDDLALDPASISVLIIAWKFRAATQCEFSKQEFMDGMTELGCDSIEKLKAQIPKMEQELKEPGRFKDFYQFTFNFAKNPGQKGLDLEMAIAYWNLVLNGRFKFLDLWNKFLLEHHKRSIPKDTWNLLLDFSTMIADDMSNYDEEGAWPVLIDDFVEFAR

| Compound | IC50 [1] | IC50 [2, 3] | IC50 [2, 4] | IC50 [2, 5] |
| --- | --- | --- | --- | --- |
| CCN1C(=O)[C@@H](NC(=O)c2nc(C(F)(F)F)cs2)[C@@H](c2ccc(F)cc2)c2c(C(=O)N3CCC[C@H]3C#N)nn(C3CCOCC3)c21 [Compound I-586] | ≤ 100 nM | 200 to 1000 nM | 1000 to 3000 nM |  |
| CCN1C(=O)[C@@H](NC(=O)c2cccc(C(F)(F)F)c2)[C@@H](C2CC2)c2c(C(=O)N3CC[C@H]3C#N)nn(-c3ccccc3)c21 [Compound I-561] | ≤ 100 nM | ≤ 200 nM | 1000 to 3000 nM |  |
| CCN1C(=O)[C@@H](NC(=O)c2cccc(C(F)(F)F)c2)[C@@H](c2ccc(F)cc2)c2c(C(=O)N(C)C3(C#N)CCC3)nn(-c3ccccc3)c21 (racemic) [Compound I-689] | 100 to 1000 nM | ≤ 200 nM | 1000 to 3000 nM |  |
| CCN1C(=O)[C@@H](NC(=O)c2cccc(C(F)(F)F)c2)[C@@H](C2CC2)c2c(C(=O)N3CS(=O)(=O)C[C@@H]3C#N)nn(-c3ccccc3)c21 [Compound I-521] | ≤ 100 nM | ≤ 200 nM | 1000 to 3000 nM |  |
| CCCn1nc(C(=O)N(C)C(C)C#N)c2c1N(CC)C(=O)[C@@H](NC(=O)c1cccc(C(F)(F)F)c1)[C@H]2C1CC1 (stereo partly drawn) [Compound I-569] | ≤ 100 nM | ≤ 200 nM | 200 to 1000 nM |  |
| CCN1C(=O)[C@@](C)(NC(=O)c2cccc(C(F)(F)F)c2)[C@@H](c2ccc(F)cc2)c2c([C@@H](C)NC#N)nn(-c3ccccc3)c21 [Compound I-539] | ≤ 100 nM | ≤ 200 nM |  | ≤ 200 nM |
| CCN1C(=O)[C@@H](NC(=O)c2cccc(C(F)(F)F)c2)[C@@H](c2ccc(F)cc2)c2c(C(=O)N3C[C@H](NC)C[C@H]3C#N)nn(C3CCOCC3)c21 (mixture of isomers) [Compound I-509, N-((4S,5S)-3-((2S,4R)-2-cyano-4-(methylamino)pyrrolidine-1-carbonyl)-7-ethyl-4-(4-fluorophenyl)-6-oxo-1-(tetrahydro-2H-pyran-4-yl)-4,5,6,7-tetrahydro-1H-pyrazolo[3,4-b]pyridin-5-yl)-3-(trifluoromethyl)benzamide] | ≤ 100 nM | ≤ 200 nM |  | ≤ 200 nM |
| CCN1C(=O)[C@@H](NC(=O)c2cccc(C(F)(F)F)c2)[C@@H](C2CCCC2)c2c(C(=O)N(C)[C@@H](C)C#N)nn(C3CCOCC3)c21 [Compound I-559] | ≤ 100 nM | ≤ 200 nM | 200 to 1000 nM |  |
| C#C[C@@H]1CCCN1C(=O)c1nn(C2CCOCC2)c2c1[C@H](C1CC1)[C@H](NC(=O)c1cccc(C(F)(F)F)c1)C(=O)N2CC [Compound I-594] | > 1000 nM | 1000 to 3000 nM | 1000 to 3000 nM |  |
| CCN1C(=O)[C@@H](NC(=O)c2cccc(C(F)(F)F)c2)[C@@H](c2ccc(F)cc2)c2c(CNC(=O)/C=C(\C)C(=O)OC)nn(-c3ccccc3)c21 (racemic) [Compound I-150, rac-methyl (E)-4-((((4R,5R)-7-ethyl-4-(4-fluorophenyl)-6-oxo-1-phenyl-5-(3-(trifluoromethyl)benzamido)-4,5,6,7-tetrahydro-1H-pyrazolo[3,4-b]pyridin-3-yl)methyl)amino)-2-methyl-4-oxobut-2-enoate] | > 1000 nM | 200 to 1000 nM | 1000 to 3000 nM |  |
| CCN1C(=O)[C@H](NC(=O)c2cccc(C(F)(F)F)c2)[C@H](C2CC2)c2c(C(=O)N(CC#N)C3CC3)nn(-c3ccccc3)c21 [Compound I-557] | > 1000 nM | 1000 to 3000 nM | 1000 to 3000 nM |  |
| CCN1C(=O)[C@H](NC(=O)c2cccc(C(F)(F)F)c2)[C@H](C2CC2)c2c(C(=O)N(CC#N)C3CC3)nn(C3CCOCC3)c21 [Compound I-405] | > 1000 nM | 1000 to 3000 nM | 1000 to 3000 nM |  |
| CCN1C(=O)[C@@H](NC(=O)CN2CC(c3ccccc3)CC2=O)[C@@H](C2CC2)c2c(C(=O)N3[C@H](C#N)C[C@H]4C[C@H]43)nn(C3CCOCC3)c21 (stereo partly drawn) [Compound I-629] | > 1000 nM | 1000 to 3000 nM | 1000 to 3000 nM |  |
| CCN1C(=O)[C@@H](NC(=O)c2cccc(C(F)(F)F)c2)[C@@H](C2CC2)c2c(C(=O)N(C)C(C)C#N)nn(-c3ccccc3)c21 (mixture of isomers) [Compound I-543] | 100 to 1000 nM | ≤ 200 nM |  | ≤ 200 nM |
| CCN1C(=O)[C@@H](NC(=O)c2cccc(C(F)(F)F)c2)[C@@H](c2ccc(F)cc2)c2c(CN(C#N)CCCN3CCC4(CC3)COC4)nn(-c3ccccc3)c21 [Compound I-579] | ≤ 100 nM | ≤ 200 nM |  | ≤ 200 nM |
| C=C(CN1CC2CCC(C1)O2)C(=O)NCc1nn(-c2ccccc2)c2c1[C@H](c1ccc(F)cc1)[C@H](NC(=O)c1cccc(C(F)(F)F)c1)C(=O)N2CC [Compound I-50] | ≤ 100 nM | ≤ 200 nM |  | ≤ 200 nM |

| Compound | IC50 [1] | IC50 [2, 3] | IC50 [2, 4] | IC50 [2, 5] |
| --- | --- | --- | --- | --- |
| CCN1C(=O)[C@H](NC(=O)c2cccc(C(F)(F)F)c2)[C@H](c2ccc(F)cc2)c2c(C(=O)N(CC#N)C3COC3)nn(-c3ccccc3)c21 (racemic) [Compound I-603] | 100 to 1000 nM | ≤ 200 nM | 1000 to 3000 nM |  |
| CCN1C(=O)[C@H](NC(=O)c2cccc(C(F)(F)F)c2)[C@H](c2ccc(F)cc2)c2c(C(=O)N(CC#N)C3CC3)nn(-c3ccccc3)c21 (stereo in doubt) [Compound I-674] | > 1000 nM | 1000 to 3000 nM | 1000 to 3000 nM |  |
| CCN1C(=O)[C@@H](NC(=O)c2nccc(C(F)(F)F)n2)[C@H](c2ccc(F)cc2)c2c(CC(=O)N[C@@H](C)C#N)nn(-c3ccccc3)c21 (single isomer, unassigned) [Compound I-451] | > 1000 nM | 1000 to 3000 nM | 1000 to 3000 nM |  |
| CCN1C(=O)[C@@H](NC(=O)c2cccc(C(F)(F)F)c2)[C@@H](c2ccc(F)cc2)c2c(CN(C#N)CCN(C)C)nn(-c3ccccc3)c21 (racemic) [Compound I-486] | ≤ 100 nM | ≤ 200 nM | 200 to 1000 nM |  |
| CCN1C(=O)[C@@H](NC(=O)c2cccc(C(F)(F)F)c2)[C@@H](C2CCCC2)c2c(C(=O)N(CC#N)C3CC3)nn(C3CCOCC3)c21 [Compound I-478] | 100 to 1000 nM | ≤ 200 nM | 1000 to 3000 nM |  |
| CCN1C(=O)[C@@H](NC(=O)c2cccc(C(F)(F)F)c2)[C@@H](c2ccc(F)cc2)c2c(CNC/C=C/C(=O)OC(C)(C)C)nn(-c3ccccc3)c21 [Compound I-635] | 100 to 1000 nM | ≤ 200 nM | 1000 to 3000 nM |  |
| CCN1C(=O)[C@H](NC(=O)c2cccc(C(F)(F)F)c2)[C@H](c2ccc(F)cc2)c2c(C(=O)N3CCC[C@H]3C#N)nn(-c3cccc(OCCN4CC5(COC5)C4)c3)c21 [Compound I-647] | > 1000 nM | 1000 to 3000 nM | 1000 to 3000 nM |  |
| CCN1C(=O)[C@@H](NC(=O)c2cccc(C(F)(F)F)c2)[C@@H](C2CC2)c2c(C(=O)N3CS(=O)(=O)C[C@H]3C#N)nn(-c3ccccc3)c21 [Compound I-519] | ≤ 100 nM | ≤ 200 nM |  | ≤ 200 nM |
| CCN1C(=O)[C@@H](NC(=O)c2cccc(C(F)(F)F)c2)[C@@H](c2ccc(F)cc2)c2c(C(=O)N3CC[C@H](NC)[C@H]3C#N)nn(C3CCOCC3)c21 (mixture of isomers) [Compound I-693, N-((4S,5S)-3-(trans-(2S,3S)-2-cyano-3-(methylamino)pyrrolidine-1-carbonyl)-7-ethyl-4-(4-fluorophenyl)-6-oxo-1-(tetrahydro-2H-pyran-4-yl)-4,5,6,7-tetrahydro-1H-pyrazolo[3,4-b]pyridin-5-yl)-3-(trifluoromethyl)benzamide] | ≤ 100 nM | ≤ 200 nM |  | ≤ 200 nM |
| CN1C(=O)[C@H](NC(=O)c2cccc(C(F)(F)F)c2)[C@H](C2CC2)c2c(C(=O)N3[C@H](C#N)C[C@H]4C[C@H]43)nn(C3CCOCC3)c21 (relative stereo) [Compound I-528, N-((4R*,5R*)-3-((1 R,3S,5R)-3-cyano-2-azabicyclo[3.1.0]hexane-2-carbonyl)-4-cyclopropyl-7-methyl-6-oxo-1-(tetrahydro-2H-pyran-4-yl)-4,5,6,7-tetrahydro-1H-pyrazolo [3,4-b]pyridin-5-yl)-3-(trifluoromethyl)benzamide] | > 1000 nM | 1000 to 3000 nM | 1000 to 3000 nM |  |
| CCN1C(=O)[C@@H](NC(=O)c2cccc(C(F)(F)F)c2)[C@@H](C2CC2)c2c(C(=O)N(C)[C@@H](C#N)CCN(C)C)nn(C3CCOCC3)c21 [Compound I-550] | ≤ 100 nM | ≤ 200 nM |  | ≤ 200 nM |
| CCN1C(=O)[C@@H](NC(=O)c2cccc(C(F)(F)F)c2)[C@@H](c2ccc(F)cc2)c2c(CN(C)CC#N)nn(-c3ccccc3)c21 [Compound I-417] | 100 to 1000 nM | 200 to 1000 nM | 1000 to 3000 nM |  |
| CCN1C(=O)[C@@H](NC(=O)c2cccc(C(F)(F)F)c2)[C@@H](c2ccc(F)cc2)c2c(CN(C#N)CCCN3CCN(C4COC4)CC3)nn(-c3ccccc3)c21 [Compound I-614] | ≤ 100 nM | ≤ 200 nM | 200 to 1000 nM |  |
| CCN1C(=O)[C@@H](NC(=O)c2cccc(C(F)(F)F)c2)[C@@H](C2CCCC2)c2c(C(=O)N(C)[C@H](C)C#N)nn(C3CCOCC3)c21 [Compound I-524] | ≤ 100 nM | ≤ 200 nM | 200 to 1000 nM |  |
| CCN1C(=O)[C@H](NC(=O)c2cccc(C(F)(F)F)c2)[C@H](c2ccc(F)cc2)c2c(C(=O)N3CCC[C@H]3C#N)nn(-c3cccc(OCCCN4CCN(C5COC5)CC4)c3)c21 [Compound I-681] | > 1000 nM | 1000 to 3000 nM | 1000 to 3000 nM |  |
